In ChEMBL document CHEMBL3885881, “DrugMatrix”:

Species on record: Rattus norvegicus
Test: DrugMatrix - Regimen: Daily Repeat
Type: toxicity, organism-based, Sprague-Dawley
Design: regimen Daily Repeat, gender Male, age 6-8 weeks
Details: in vivo, po, route oral GAVAGE, vehicle .5 % CMC; for ABSOLUTE BASOPHIL / ABSOLUTE EOSINOPHIL / ABSOLUTE LYMPHOCYTE / ABSOLUTE MONOCYTE / ABSOLUTE SEGMENTED NEUTROPHIL / BASOPHIL / EOSINOPHIL / ERYTHROCYTE COUNT / HEMATOCRIT / HEMOGLOBIN / LEUKOCYTE COUNT / LYMPHOCYTE / MEAN CORPUSCULAR HEMOGLOBIN / MEAN CORPUSCULAR HEMOGLOBIN CONCENTRATION / MEAN CORPUSCULAR VOLUME / MONOCYTE / NEUTROPHIL / NUCLEATED RED BLOOD CELLS / PLATELET COUNT: tissue Blood; for ALANINE AMINOTRANSFERASE / ALBUMIN / ALKALINE PHOSPHATASE / ASPARTATE AMINOTRANSFERASE / BLOOD UREA NITROGEN / CARBON DIOXIDE / CHLORIDE / CHOLESTEROL / CREATINE PHOSPHOKINASE / CREATININE / GLUCOSE / LACTATE DEHYDROGENASE / LIPASE / PHOSPHORUS / POTASSIUM / SODIUM / TOTAL BILIRUBIN / TOTAL PROTEIN / URIC ACID: tissue Plasma
[1] = 0 mg/kg, 72 h, dose level Control, time 3 day
[2] = 0 mg/kg, 120 h, dose level Control, time 5 day
[3] = 500 mg/kg, 72 h, dose level Low, time 3 day

## CC(C)(Sc1cc(C(C)(C)C)c(O)c(C(C)(C)C)c1)Sc1cc(C(C)(C)C)c(O)c(C(C)(C)C)c1 [PROBUCOL]
[1]
  ABSOLUTE BASOPHIL: 0 CELLS/uL
  ABSOLUTE EOSINOPHIL: 222.83 CELLS/uL
  ABSOLUTE LYMPHOCYTE: 14453 CELLS/uL
  ABSOLUTE MONOCYTE: 0 CELLS/uL
  ABSOLUTE SEGMENTED NEUTROPHIL: 1490.83 CELLS/uL
  BASOPHIL: 0%
  EOSINOPHIL: 1.33%
  ERYTHROCYTE COUNT: 5.76 x10E6/uL
  HEMATOCRIT: 36.52%
  HEMOGLOBIN: 13.45 G/DL
  LEUKOCYTE COUNT: 16.17 x10E3/uL
  LYMPHOCYTE: 89.33%
  MEAN CORPUSCULAR HEMOGLOBIN: 23.37 pg
  MEAN CORPUSCULAR HEMOGLOBIN CONCENTRATION: 36.85 G/DL
  MEAN CORPUSCULAR VOLUME: 63.47 fL
  MONOCYTE: 0%
  NEUTROPHIL: 9.33%
  NUCLEATED RED BLOOD CELLS: 0 /100WBC
  PLATELET COUNT: 1239.5 x10E3/uL
  ALANINE AMINOTRANSFERASE: 43.83 u/L
  ALBUMIN: 4.27 G/DL
  ALKALINE PHOSPHATASE: 398.83 u/L
  ASPARTATE AMINOTRANSFERASE: 81.17 u/L
  BLOOD UREA NITROGEN: 17.67 mg/dL
  CARBON DIOXIDE: 27.5 mmol/L
  CHLORIDE: 99.17 MEQ/L
  CHOLESTEROL: 74 mg/dL
  CREATINE PHOSPHOKINASE: 331.5 u/L
  CREATININE: 0.2 mg/dL
  GLUCOSE: 171.33 mg/dL
  LACTATE DEHYDROGENASE: 241.67 u/L
  LIPASE: 9.5 u/L
  PHOSPHORUS: 12.25 mg/dL
  POTASSIUM: 6.33 MEQ/L
  SODIUM: 141.28 MEQ/L
  TOTAL BILIRUBIN: 0.15 mg/dL
  TOTAL PROTEIN: 5.98 G/DL
  URIC ACID: 1.63 mg/dL
[2]
  ABSOLUTE BASOPHIL: 0 CELLS/uL
  ABSOLUTE EOSINOPHIL: 148.67 CELLS/uL
  ABSOLUTE LYMPHOCYTE: 16020.5 CELLS/uL
  ABSOLUTE MONOCYTE: 29.17 CELLS/uL
  ABSOLUTE SEGMENTED NEUTROPHIL: 1468.33 CELLS/uL
  BASOPHIL: 0%
  EOSINOPHIL: 1%
  ERYTHROCYTE COUNT: 5.78 x10E6/uL
  HEMATOCRIT: 35.77%
  HEMOGLOBIN: 13.4 G/DL
  LEUKOCYTE COUNT: 17.67 x10E3/uL
  LYMPHOCYTE: 90.5%
  MEAN CORPUSCULAR HEMOGLOBIN: 23.22 pg
  MEAN CORPUSCULAR HEMOGLOBIN CONCENTRATION: 37.47 G/DL
  MEAN CORPUSCULAR VOLUME: 61.92 fL
  MONOCYTE: 0.17%
  NEUTROPHIL: 8.33%
  NUCLEATED RED BLOOD CELLS: 0.17 /100WBC
  PLATELET COUNT: 1255.5 x10E3/uL
  ALANINE AMINOTRANSFERASE: 46.5 u/L
  ALBUMIN: 4.38 G/DL
  ALKALINE PHOSPHATASE: 336 u/L
  ASPARTATE AMINOTRANSFERASE: 76.5 u/L
  BLOOD UREA NITROGEN: 20 mg/dL
  CARBON DIOXIDE: 27.5 mmol/L
  CHLORIDE: 101 MEQ/L
  CHOLESTEROL: 71.33 mg/dL
  CREATINE PHOSPHOKINASE: 231.83 u/L
  CREATININE: 0.37 mg/dL
  GLUCOSE: 168.83 mg/dL
  LACTATE DEHYDROGENASE: 174 u/L
  LIPASE: 8.67 u/L
  PHOSPHORUS: 11.48 mg/dL
  POTASSIUM: 6.82 MEQ/L
  SODIUM: 143.8 MEQ/L
  TOTAL BILIRUBIN: 0.2 mg/dL
  TOTAL PROTEIN: 5.98 G/DL
  URIC ACID: 1.83 mg/dL
[3]
  ABSOLUTE BASOPHIL: 0 CELLS/uL
  ABSOLUTE EOSINOPHIL: 297 CELLS/uL
  ABSOLUTE LYMPHOCYTE: 13431.33 CELLS/uL
  ABSOLUTE MONOCYTE: 0 CELLS/uL
  ABSOLUTE SEGMENTED NEUTROPHIL: 1238.33 CELLS/uL
  BASOPHIL: 0%
  EOSINOPHIL: 2%
  ERYTHROCYTE COUNT: 5.69 x10E6/uL
  HEMATOCRIT: 35.67%
  HEMOGLOBIN: 13.3 G/DL
  LEUKOCYTE COUNT: 14.97 x10E3/uL
  LYMPHOCYTE: 89.67%
  MEAN CORPUSCULAR HEMOGLOBIN: 23.37 pg
  MEAN CORPUSCULAR HEMOGLOBIN CONCENTRATION: 37.3 G/DL
  MEAN CORPUSCULAR VOLUME: 62.7 fL
  MONOCYTE: 0%
  NEUTROPHIL: 8.33%
  NUCLEATED RED BLOOD CELLS: 0 /100WBC
  PLATELET COUNT: 1188.33 x10E3/uL
  ALANINE AMINOTRANSFERASE: 35.33 u/L
  ALBUMIN: 4.5 G/DL
  ALKALINE PHOSPHATASE: 363.33 u/L
  ASPARTATE AMINOTRANSFERASE: 79 u/L
  BLOOD UREA NITROGEN: 17.33 mg/dL
  CARBON DIOXIDE: 26.33 mmol/L
  CHLORIDE: 100 MEQ/L
  CHOLESTEROL: 67.33 mg/dL
  CREATINE PHOSPHOKINASE: 213 u/L
  CREATININE: 0.25 mg/dL
  GLUCOSE: 158 mg/dL
  LACTATE DEHYDROGENASE: 122 u/L
  LIPASE: 8.33 u/L
  PHOSPHORUS: 12.37 mg/dL
  POTASSIUM: 6.67 MEQ/L
  SODIUM: 142.2 MEQ/L
  TOTAL BILIRUBIN: 0.13 mg/dL
  TOTAL PROTEIN: 6.23 G/DL
  URIC ACID: 1.73 mg/dL
